Tested on: Mus musculus
Test: Antiamnesic activity in sc dosed mouse after 30 mins by passive avoidance test
Format: functional
Conditions: 0.5 h, read-out: MED

| SMILES | minimal effective dose [mg/kg] |
| --- | --- |
| CCCN1CCN(S(=O)(=O)c2ccc(F)cc2)CC1 | 1 |
| CCC(=O)N1CCN(Cc2ccccc2)C(=O)C1 | 10 |
| CCC(=O)NC1CCN(S(=O)(=O)c2ccc(F)cc2)CC1 | 0.1 |
| CCC(=O)N1CCN(C(=O)c2ccccc2)CC1=O | 10 |
| CC(C)S(=O)(=O)NC1CCCN(S(=O)(=O)c2ccc(F)cc2)C1 (stereo unspecified) | 1 |
| CC(=O)N1CCC(NS(=O)(=O)c2ccc(F)cc2)CC1 | 0.1 |
| CC(=O)NC1CCCN(S(=O)(=O)c2ccc(F)cc2)C1 (stereo unspecified) | 1 |
| CCC(=O)N1CCCC(NC(=O)c2ccccc2)C1 (stereo unspecified) | 1 |
| CC(=O)N1CCN(S(=O)(=O)c2ccc(F)cc2)CC1=O | 0.3 |
| CC(=O)NCC1CCCN(S(=O)(=O)c2ccc(F)cc2)C1 (stereo unspecified) | 10 |
| CCC(=O)N1CCC(NS(=O)(=O)c2ccc(F)cc2)CC1 | 10 |
| CCC(=O)NC1CCN(C(=O)c2ccccc2)CC1 | 0.1 |
| CCC(=O)N1CCC(CNS(=O)(=O)c2ccc(F)cc2)CC1 | 1 |
| CCC(=O)NC1CCCN(S(=O)(=O)c2ccc(F)cc2)C1 (stereo unspecified) | 1 |
| CC(C)S(=O)(=O)N1CCCC(NS(=O)(=O)c2ccc(F)cc2)C1 (stereo unspecified) | 10 |
| CCC(=O)N1CCN(S(=O)(=O)c2ccc(F)cc2)CC1=O | 0.3 |

| SMILES | minimal effective dose [mg/kg] |
| --- | --- |
| CCC(=O)N1CCN(C(=O)c2ccccc2)CC1 [SUNIFIRAM] | 0.001 |
| CCC(=O)N1CCN(S(=O)(=O)c2ccc(F)cc2)CC1 | 0.01 |
| CCC(=O)NC1CCCN(C(C)=O)C1 (stereo unspecified) | 1 |
| CC(=O)N1CCN(C(=O)c2ccccc2)CC1=O | 10 |
| O=S(=O)(NCC1CCN(S(=O)(=O)c2ccc(F)cc2)CC1)c1ccc(F)cc1 | 1 |
| CCC(=O)N1CCCC(NS(=O)(=O)c2ccc(F)cc2)C1 (stereo unspecified) | 10 |
| CCC(=O)NCC1CCN(C(=O)c2ccccc2)CC1 | 1 |
| CC(=O)N1CCN(S(=O)(=O)c2ccc(F)cc2)CC1 | 0.01 |
| CC(=O)N1CCCC(NS(=O)(=O)c2ccc(F)cc2)C1 (stereo unspecified) | 1 |
| CC(=O)NC1CCN(S(=O)(=O)c2ccc(F)cc2)CC1 [SAPUNIFIRAM] | 0.01 |
| CCC(=O)N1CCN(Cc2ccccc2)CC1 | 10 |
| CCC(=O)NCC1CCCN(S(=O)(=O)c2ccc(F)cc2)C1 (stereo unspecified) | 10 |
| CC(=O)N1CCN(C(=O)c2ccccc2)CC1 | 10 |
| CC(C)S(=O)(=O)NC1CCCN(C(=O)c2ccccc2)C1 (stereo unspecified) | 1 |
| CC(=O)N1CCN(C(=O)c2ccccc2)C(=O)C1 | 10 |
